US8138189B2, “Substituted benzene compounds as modulators of the glucocorticoid receptor” (Hoffman-La Roche Inc., priority 2009, dated 2012)

Target: T1, full length human recombinant glucocorticoid receptor (Homo sapiens, UniProt P04150)
T1 construct: partially purified full length human recombinant glucocorticoid receptor; purchased Panvera/Invitrogen PV4302
T1 sequence (P04150 1-777): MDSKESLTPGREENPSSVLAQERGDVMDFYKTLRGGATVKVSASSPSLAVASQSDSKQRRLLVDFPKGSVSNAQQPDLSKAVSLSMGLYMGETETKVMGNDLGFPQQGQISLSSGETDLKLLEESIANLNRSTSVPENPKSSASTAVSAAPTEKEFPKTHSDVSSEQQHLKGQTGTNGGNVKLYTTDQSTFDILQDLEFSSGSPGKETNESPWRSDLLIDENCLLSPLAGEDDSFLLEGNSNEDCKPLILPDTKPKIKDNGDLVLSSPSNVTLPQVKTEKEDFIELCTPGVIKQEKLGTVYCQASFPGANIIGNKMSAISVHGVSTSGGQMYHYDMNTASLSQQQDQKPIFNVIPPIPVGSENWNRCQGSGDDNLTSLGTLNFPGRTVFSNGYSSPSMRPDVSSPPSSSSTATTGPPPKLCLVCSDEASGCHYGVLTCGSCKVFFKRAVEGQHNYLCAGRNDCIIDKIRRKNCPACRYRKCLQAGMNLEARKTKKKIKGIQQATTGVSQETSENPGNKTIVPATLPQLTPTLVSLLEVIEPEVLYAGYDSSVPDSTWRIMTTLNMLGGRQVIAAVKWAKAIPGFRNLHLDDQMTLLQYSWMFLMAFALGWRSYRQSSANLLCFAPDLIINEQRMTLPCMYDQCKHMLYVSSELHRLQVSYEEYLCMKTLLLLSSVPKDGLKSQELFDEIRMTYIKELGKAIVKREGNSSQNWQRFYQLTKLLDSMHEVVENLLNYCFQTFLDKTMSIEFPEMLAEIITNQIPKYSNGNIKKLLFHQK
Assay: Glucocorticoid Receptor Binding Assay (fluorescence polarization competitor assay, Fluormone GS Far Red tracer)
Outline: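 Partially purified full-length recombinant human GR with a stabilizing coactivator peptide was incubated with Fluormone GS Far Red tracer and serially diluted compound for 3 h at 22 °C in the dark, pH 7.4. Fluorescence polarization was read at 610-660 nm. IC50 came from sigmoidal fitting, and Ki from Cheng-Prusoff.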

Row | Ki | Structure (SMILES)
1 | 0.0339 µM | COC(=O)C(C)c1ccc(COc2ccc([C@@H](C)[C@@](O)(c3cnc(C)cn3)C(F)(F)F)c(Cl)c2)cc1 (stereo in doubt) [Example 17, 2-(4-{3-Chloro-4-[3,3,3-trifluoro-2-hydroxy-1-methyl-2-(5-methyl-pyrazin-2-yl)-propyl]-phenoxymethyl}-phenyl)-propionic acid methyl ester]
2 | 0.0005 µM | Cc1cc([C@@](O)([C@@H](C)c2ccc(Oc3ccc(C(=O)O)c(C(F)(F)F)c3)cc2Cl)C(F)(F)F)cn(C)c1=O (stereo in doubt) [Example 214, 4-{3-Chloro-4-[2-(1,5-dimethyl-6-oxo-1,6-dihydro-pyridin-3-yl)-3,3,3-trifluoro-2-hydroxy-1-methyl-propyl]-phenoxy}-2-trifluoromethyl-benzoic acid]
3 | 0.0095 µM | Cc1cc([C@@](O)([C@@H](C)c2ccc(Oc3ncc(C(=O)O)cn3)cc2Cl)C(F)(F)F)cn(C)c1=O (stereo in doubt) [Example 254, 2-{3-Chloro-4-[2-(1,5-dimethyl-6-oxo-1,6-dihydro-pyridin-3-yl)-3,3,3-trifluoro-2-hydroxy-1-methyl-propyl]-phenoxy}-pyrimidine-5-carboxylic acid]
4 | 0.11 µM | Cc1cnc([C@](O)([C@H](C)c2ccc(OCc3ccc(C(C)C(=O)O)cc3)cc2Cl)C(F)(F)F)cn1 (stereo in doubt) [Example 18, 2-(4-{3-Chloro-4-[3,3,3-trifluoro-2-hydroxy-1-methyl-2-(5-methyl-pyrazin-2-yl)-propyl]-phenoxymethyl}-phenyl)-propionic acid]
5 | 0.0148 µM | Cc1cc([C@](O)([C@H](C)c2ccc(Oc3ccc(C(=O)O)cn3)cc2Cl)C(F)(F)F)cn(C)c1=O [Example 247, 6-{3-Chloro-4-[(1R,2R)-2-(1,5-dimethyl-6-oxo-1,6-dihydro-pyridin-3-yl)-3,3,3-trifluoro-2-hydroxy-1-methyl-propyl]-phenoxy}-nicotinic acid]
6 | 0.0683 µM | Cc1cc([C@](O)([C@H](C)c2ccc(OCc3cnn(CC(=O)O)c3)cc2Cl)C(F)(F)F)ccn1 (stereo in doubt) [Example 103, (4-{3-Chloro-4-[3,3,3-trifluoro-2-hydroxy-1-methyl-2-(2-methyl-pyridin-4-yl)-propyl]-phenoxymethyl}-pyrazol-1-yl)-acetic acid]
7 | 0.0085 µM | COC(=O)c1ccc(OCc2ccc([C@@H](C)[C@@](O)(c3ccnc(Cl)c3)C(F)(F)F)c(Cl)c2)nc1 (stereo in doubt) [Example 126, 6-{3-Chloro-4-[2-(2-chloro-pyridin-4-yl)-3,3,3-trifluoro-2-hydroxy-1-methyl-propyl]-benzyloxy}-nicotinic acid methyl ester]
8 | 0.0485 µM | C[C@H](c1ccc(-c2ccc(C(=O)O)cc2)cc1Cl)[C@@](O)(c1ccnc(Cl)c1)C(F)(F)F (relative stereo) [Example 50, 3′-Chloro-4′-[2-(2-chloro-pyridin-4-yl)-3,3,3-trifluoro-2-hydroxy-1-methyl-propyl]-biphenyl-4-carboxylic acid]
9 | 0.0007 µM | Cc1cc([C@@](O)([C@@H](C)c2ccc(Oc3cc(C(F)(F)F)c(C(=O)O)cn3)cc2Cl)C(F)(F)F)cn(C)c1=O (stereo in doubt) [Example 206, 6-{3-Chloro-4-[2-(1,5-dimethyl-6-oxo-1,6-dihydro-pyridin-3-yl)-3,3,3-trifluoro-2-hydroxy-1-methyl-propyl]-phenoxy}-4-trifluoromethyl-nicotinic acid]
10 | 0.0009 µM | C[C@H](c1ccc(Oc2ccc(C(=O)O)cc2F)cc1Cl)[C@@](O)(c1ccc(=O)n(C)c1)C(F)(F)F (relative stereo) [Example 156, 4-{3-Chloro-4-[3,3,3-trifluoro-2-hydroxy-1-methyl-2-(1-methyl-6-oxo-1,6-dihydro-pyridin-3-yl)-propyl]-phenoxy}-3-fluoro-benzoic acid]
11 | 0.28 µM | CCOC(=O)Cc1ccc(CNC(=O)c2ccc([C@@H](C)[C@@](O)(c3ccnc(Cl)c3)C(F)(F)F)c(Cl)c2)cc1 (stereo in doubt) [Example 42, [4-({3-Chloro-4-[2-(2-chloro-pyridin-4-yl)-3,3,3-trifluoro-2-hydroxy-1-methyl-propyl]-benzoylamino}-methyl)-phenyl]-acetic acid ethyl ester]
12 | 0.0247 µM | C[C@H](c1ccc(COc2ncc(C(=O)O)cn2)cc1Cl)[C@@](O)(c1ccnc(Cl)c1)C(F)(F)F (stereo in doubt) [Example 125, 2-{3-Chloro-4-[2-(2-chloro-pyridin-4-yl)-3,3,3-trifluoro-2-hydroxy-1-methyl-propyl]-benzyloxy}-pyrimidine-5-carboxylic acid]
13 | 0.0107 µM | COC(=O)c1ccc(OCc2ccc([C@@H](C)[C@@](O)(c3ccnc(Cl)c3)C(F)(F)F)c(Cl)c2)nn1 (stereo in doubt) [Example 122, 6-{3-Chloro-4-[2-(2-chloro-pyridin-4-yl)-3,3,3-trifluoro-2-hydroxy-1-methyl-propyl]-benzyloxy}-pyridazine-3-carboxylic acid methyl ester]
14 | 0.0026 µM | COC(=O)c1ccc(Oc2ccc([C@@H](C)[C@@](O)(c3ccc(=O)n(C)c3)C(F)(F)F)c(Cl)c2Cl)cc1F (stereo in doubt) [Example 199, 4-{2,3-Dichloro-4-[3,3,3-trifluoro-2-hydroxy-1-methyl-2-(1-methyl-6-oxo-1,6-dihydro-pyridin-3-yl)-propyl]-phenoxy}-2-fluoro-benzoic acid methyl ester]
15 | 0.0723 µM | COc1cc(C(=O)O)ccc1COc1ccc([C@@H](C)[C@@](O)(c2cnc(C)cn2)C(F)(F)F)c(Cl)c1 (stereo in doubt) [Example 16, 4-{3-Chloro-4-[3,3,3-trifluoro-2-hydroxy-1-methyl-2-(5-methyl-pyrazin-2-yl)-propyl]-phenoxymethyl}-3-methoxy-benzoic acid]
16 | 0.155 µM | COC(=O)Cc1ccc(NC(=O)c2ccc([C@@H](C)[C@@](O)(c3ccnc(Cl)c3)C(F)(F)F)c(Cl)c2)cc1 (relative stereo) [Example 38, (4-{3-Chloro-4-[2-(2-chloro-pyridin-4-yl)-3,3,3-trifluoro-2-hydroxy-1-methyl-propyl]-benzoylamino}-phenyl)-acetic acid methyl ester]
17 | 0.0006 µM | C[C@H](c1ccc(Oc2ccc(F)c(OCC(=O)O)c2)cc1Cl)[C@@](O)(c1ccc(=O)n(C)c1)C(F)(F)F (stereo in doubt) [Example 162, (5-{3-Chloro-4-[3,3,3-trifluoro-2-hydroxy-1-methyl-2-(1-methyl-6-oxo-1,6-dihydro-pyridin-3-yl)-propyl]-phenoxy}-2-fluoro-phenoxy)-acetic acid]
18 | 0.0242 µM | COC(=O)c1cnc(Oc2ccc(C(C)C(O)(c3ccnc(Cl)c3)C(F)(F)F)c(Cl)c2)cn1 (centres unmarked) [Example 114, 5-{3-Chloro-4-[2-(2-chloro-pyridin-4-yl)-3,3,3-trifluoro-2-hydroxy-1-methyl-propyl]-phenoxy}-pyrazine-2-carboxylic acid methyl ester]
19 | 0.0204 µM | CC(c1ccc(Oc2ccc(C(=O)O)cn2)cc1Cl)C(O)(c1ccnc(Cl)c1)C(F)(F)F (centres unmarked) [Example 119, 6-{3-Chloro-4-[2-(2-chloro-pyridin-4-yl)-3,3,3-trifluoro-2-hydroxy-1-methyl-propyl]-phenoxy}-nicotinic acid]
20 | 0.361 µM | Cc1cc(C(O)(C(C)c2ccc(Oc3ccc(C(=O)O)nn3)cc2Cl)C(F)(F)F)ccn1 (centres unmarked) [Example 105, 6-{3-Chloro-4-[3,3,3-trifluoro-2-hydroxy-1-methyl-2-(2-methyl-pyridin-4-yl)-propyl]-phenoxy}-pyridazine-3-carboxylic acid]
21 | 0.404 µM | C[C@H](c1cc(Oc2ccc(C(=O)O)nn2)ccc1Cl)[C@@](O)(c1ccnc(Cl)c1)C(F)(F)F (stereo in doubt) [Example 139, 6-{4-Chloro-3-[2-(2-chloro-pyridin-4-yl)-3,3,3-trifluoro-2-hydroxy-1-methyl-propyl]-phenoxy}-pyridazine-3-carboxylic acid]
22 | 0.0243 µM | COC(=O)c1cnc(Oc2ccc([C@@H](C)[C@@](O)(c3ccc(=O)n(C)c3)C(F)(F)F)c(Cl)c2Cl)cn1 (relative stereo) [Example 237, 5-{2,3-Dichloro-4-[3,3,3-trifluoro-2-hydroxy-1-methyl-2-(1-methyl-6-oxo-1,6-dihydro-pyridin-3-yl)-propyl]-phenoxy}-pyrazine-2-carboxylic acid methyl ester]
23 | 0.0308 µM | CC(c1ccc(OCc2ccc(C(=O)O)cc2)cc1Cl)C(O)(c1ccncc1)C(F)(F)F (centres unmarked) [Example 107, 4-[3-Chloro-4-(3,3,3-trifluoro-2-hydroxy-1-methyl-2-pyridin-4-yl-propyl)-phenoxymethyl]-benzoic acid]
